The source of these data is patent publication US20250296914A1, “ANTIVIRAL COMPOUNDS AND COMPOSITIONS THEREFROM” (CONSEJO SUPERIOR DE INVESTIGACIONES CIENTÍFICAS, priority 2022, published 2025).

The EC50 is the concentration at which the effect is half-maximal. As a reminder, the EC90 is the concentration needed for an effect of 90%.

A value given as a limit tells only on which side of the number the result lay.

Data set [1] deals with SARS-CoV-2 stock strain NL/2020. Description: Protective effect against virus-induced cytopathic effect (crystal violet staining of Vero-E6 monolayer). Conditions: Severe acute respiratory syndrome coronavirus 2, Vero C1008, 72 h, Vero-E6, SARS-CoV-2 MOI 0.001, 72 h; for minimal effective concentration: 50 to 0.78 μM tested, read-out: PC MIN (lowest protective concentration); for EC50: lowest fully protecting concentration averaged with next lower dilution, read-out: ESTIMATED EC50. It is filed as cell-based.

Data set [2] in a line: in vitro. Conditions: human.
In data set [3] the test system is SARS-CoV-2 stock strain NL/2020. The experiment in a line: Intracellular viral antigen (N protein) accumulation by immunofluorescence, Vero-E6. Type of data set: cell-based. Conditions: Severe acute respiratory syndrome coronavirus 2, Vero C1008; Vero-E6, MOI 0.005, viral antigen staining, 24 h.
For data set [4] the test system is unchanged. Description: Intracellular viral antigen (N protein) accumulation by immunofluorescence, Calu3. Type of data set: cell-based. Conditions: Severe acute respiratory syndrome coronavirus 2; Calu-3, MOI 0.005, viral antigen staining, 48 h.
The subject of data set [5] is WNV-GFP virus. It is filed as cell-based, West Nile Virus. Conditions: Huh-7, MOI 0.01, 48 h, FIG. 2.
The nature of data set [6]: in vitro. Conditions: human. The source holds these as a separate data set.
Data set [7] in a line: in vitro. Conditions: African green monkey.
For data set [8], the system named is VSV-GFP virus. It is filed as cell-based, Vesicular Stomatitis Virus.
Data set [9] has as its system hCoV-229E-GFP virus. Type of data set: cell-based, Human coronavirus 229E.
The test system of data set [10] is SARS-CoV-2 stock strain NL/2020. Description: Intracellular viral antigen (N protein) accumulation by immunofluorescence, A549-ACE2. It is filed as cell-based. Conditions: Severe acute respiratory syndrome coronavirus 2; A549-ACE2, MOI 0.005, viral antigen staining, 48 h.
For data set [11] the test system is unchanged. The experiment in a line: Intracellular viral RNA quantification by RT-qPCR in A549-ACE2 cells. Conditions: for LOG viral RNA reduction: A549-ACE2, MOI 0.005, 48 h, vs DMSO; for Prevention of SARS-CoV-2 propagation (in words): A549-ACE2, conclusion from Table 5. Type of data set: cell-based.

Take `COC(=O)c1cc(-c2ccc(N3CCOCC3)cc2)ccc1NC(C#N)[C@H](Cc1c[nH]c2ccccc12)NC(=O)OC(C)(C)C` (stereo partly drawn) [(Ia), methyl 4-(((2S)-2-((tert-butoxycarbonyl)amino)-1-cyano-3-(1H-indol-3-yl)propyl)-amino)-4′-morpholino-[1,1′-biphenyl]-3-carboxylate]: the minimal effective concentration in data set [1] came out at 0.78 µM. The EC50 was 0.58 µM in data set [1], 0.3 µM in data set [3], 0.2 µM in data set [4] and 1 µM in data set [10]. Further, the CC50 at 48 h in data set [2], in data set [6] and in data set [7] was above 50 µM throughout. The EC90 in data set [3] came out at 0.5 µM; in [4], 2 µM; in data set [10], 1.8 µM. Also, the “Prevention of infection by West Nile Virus (GFP expression, in words)” value in [5] was “not being suitable for preventing the infection”. For the same molecule, the “Prevention of infection by Vesicular Stomatitis Virus (GFP expression, in words)” value in [8] is listed as “not being suitable for preventing the infection”. Also, in [9], the “Prevention of infection with 229E-GFP (GFP expression, in words)” value (“Prevention of infection with 229E-GFP” below) was “suitable for preventing efficiently the infection”.

For `COC(=O)c1cc(-c2ccnc(N3CCOCC3)c2)ccc1NC(C#N)[C@H](Cc1c[nH]c2ccccc12)NC(=O)OC(C)(C)C` (stereo partly drawn) [(Ian), methyl 2-(((2S)-2-((tert-butoxycarbonyl)amino)-1-cyano-3-(1H-indol-3-yl)propyl)amino)-5-(2-morpholinopyridin-4-yl)benzoate], in [1], the minimal effective concentration was 1.85 µM and the EC50 is 1.39 µM. In data set [2], the CC50 at 48 h is above 50 µM. In [10], the EC50 turned out to be 1.1 µM and it took 6 µM to reach the 90% level (EC90).

For `CC(C)(C)OC(=O)N[C@@H](Cc1c[nH]c2ccccc12)C(C#N)Nc1ccc(Br)cc1C(=O)c1ccccc1` (stereo partly drawn) [(Ic), (3S)-2-((4-Bromo-2-benzoylphenyl)amino)-4-(1H-indol-3-yl)-3-(tert-butoxycarbonylamino)butanenitrile], the minimal effective concentration in data set [1] is 0.78 µM. Moreover, the EC50 in data set [1] is 0.58 µM; in data set [3], 0.2 µM; in data set [4], 1.2 µM; in [10] it was 1 µM. Besides, the figures for the EC90 in [3], in [4] and in data set [10] were 0.3 µM, 1.8 µM and 2.1 µM, respectively. Further, the “Prevention of infection by West Nile Virus (GFP expression, in words)” value in data set [5] is listed as “not being suitable for preventing the infection”. For the same molecule, the “LOG viral RNA reduction” value in data set [11] (compound concentration 4 μM) is listed as 4.26 LOG. Further, the “Prevention of SARS-CoV-2 propagation (in words)” value in data set [11] is given as “effective in preventing propagation of SARS-CoV-2”. The CC50 at 48 h in [7] was above 50 µM. In data set [8], the “Prevention of infection by Vesicular Stomatitis Virus (GFP expression, in words)” value is “not being suitable for preventing the infection”. In [9], the “Prevention of infection with 229E-GFP” value was “suitable for preventing efficiently the infection”.

In the case of `COC(=O)c1cc(-c2ccc3c(c2)OCCO3)ccc1NC(C#N)[C@H](Cc1c[nH]c2ccccc12)NC(=O)OC(C)(C)C` (stereo partly drawn) [(If), methyl 2-(((2S)-2-((tert-butoxycarbonyl)amino)-1-cyano-3-(1H-indol-3-yl)propyl)amino)-5-(2,3-dihydrobenzo[b][1,4]dioxin-6-yl)benzoate], the minimal effective concentration in data set [1] is 0.78 µM. The EC50 was 0.58 µM in data set [1], 1 µM in data set [3], 2 µM in data set [4] and 1 µM in data set [10]. Also, the CC50 at 48 h in data set [2] is above 50 µM; in data set [6] it was 50 µM; in [7], above 50 µM. Besides, the values for the EC90 in data set [3], in data set [4] and in [10] were 1.8 µM, 4 µM and 1.8 µM, respectively. For the same molecule, the “LOG viral RNA reduction” value in [11] (compound concentration 4 μM) amounted to 5.14 LOG. Besides, the “Prevention of SARS-CoV-2 propagation (in words)” value in data set [11] is “effective in preventing propagation of SARS-CoV-2”.

In the case of `COC(=O)c1cc(-c2cccc(N3CCOCC3)c2)ccc1NC(C#N)[C@H](Cc1c[nH]c2ccccc12)NC(=O)OC(C)(C)C` (stereo partly drawn) [(Ig), methyl 4-(((2S)-2-((tert-butoxycarbonyl)amino)-1-cyano-3-(1H-indol-3-yl)propyl)amino)-3′-morpholino-[1,1′-biphenyl]-3-carboxylate], in [1], the minimal effective concentration turned out to be 0.78 µM. The EC50 in data set [1] was 0.58 µM; in data set [3], 1.3 µM; in [4], 1.8 µM; in [10], 1.8 µM. Moreover, the CC50 at 48 h in data set [2], in data set [6] and in [7] was above 50 µM each time. Moreover, the EC90 in data set [3] was 2 µM; in data set [4], 8 µM; in data set [10] it was 8 µM.

For `COC(=O)c1ccc(Br)cc1NC(C#N)[C@H](Cc1c[nH]c2ccccc12)NC(=O)OC(C)(C)C` (stereo partly drawn) [(Ii), methyl 4-bromo-2-(((2S)-2-((tert-butoxycarbonyl)amino)-1-cyano-3-(1H-indol-3-yl)propyl)-amino)benzoate], the minimal effective concentration in data set [1] is 1.56 µM. The EC50 in [1] is 1.17 µM; in [3], 0.2 µM; in data set [4], below 0.9 µM; in data set [10] it was 2 µM. Besides, the EC90 in data set [3] was 1.4 µM; in data set [4], 2.7 µM; in data set [10], 6 µM. In addition, the CC50 at 48 h in data set [7] was above 12.5 µM.

Consider `COC(=O)c1cc(-c2cc(OC(C)C)ccc2F)ccc1NC(C#N)[C@H](Cc1c[nH]c2ccccc12)NC(=O)OC(C)(C)C` (stereo partly drawn) [(Ip), methyl 4-(((2S)-2-((tert-butoxycarbonyl)amino)-1-cyano-3-(1H-indol-3-yl)propyl)amino)-2′-fluoro-5′-isopropoxy-[1,1′-biphenyl]-3-carboxylate], for which, in data set [1], the minimal effective concentration was 1.56 µM. Besides, the EC50 in [1] was 1.17 µM; in [3], 1.5 µM; in data set [4], 1.8 µM; in data set [10] it was 5 µM. Moreover, the values for the EC90 in data set [3], in [4] and in data set [10] were 7 µM, 8 µM and 9 µM, respectively. Moreover, the CC50 at 48 h in data set [7] was above 50 µM.

For the molecule `COC(=O)c1cc(-c2ccc(N3CCCC3)nc2)ccc1NC(C#N)[C@H](Cc1c[nH]c2ccccc12)NC(=O)OC(C)(C)C` (stereo partly drawn) [(Iq), methyl 2-(((2S)-2-((tert-butoxycarbonyl)amino)-1-cyano-3-(1H-indol-3-yl)propyl)amino)-5-(6-(pyrrolidin-1-yl)pyridin-3-yl)benzoate], in data set [1], the minimal effective concentration came out at 1.56 µM. Moreover, the EC50 in data set [1] was 1.17 µM; in data set [3], 0.2 µM; in [4], 0.3 µM; in data set [10], 1.5 µM. The CC50 at 48 h in data set [2], in data set [6] and in data set [7] was above 50 µM in each case. Moreover, the EC90 was determined as 0.9 µM in [3], 2.5 µM in [4] and 5 µM in [10]. Besides, in data set [5], the “Prevention of infection by West Nile Virus (GFP expression, in words)” value was “not being suitable for preventing the infection”. The “Prevention of infection by Vesicular Stomatitis Virus (GFP expression, in words)” value in data set [8] was “not being suitable for preventing the infection”. Also, the “Prevention of infection with 229E-GFP” value in [9] is given as “suitable for preventing efficiently the infection”.

For the molecule `COC(=O)c1cc(-c2ccc(N3CCOCC3)nc2)ccc1NC(C#N)[C@H](Cc1c[nH]c2ccccc12)NC(=O)OC(C)(C)C` (stereo partly drawn) [(Is), methyl 2-(((2S)-2-((tert-butoxycarbonyl)amino)-1-cyano-3-(1H-indol-3-yl)propyl)amino)-5-(6-morpholinopyridin-3-yl)benzoate], the minimal effective concentration in [1] came out at 1.56 µM. For the same molecule, the EC50 in data set [1] was 1.17 µM; in data set [3] it was 0.4 µM; in [4] it was 1.3 µM; in [10], 2 µM. Moreover, the CC50 at 48 h in data set [2], in data set [6] and in data set [7] was above 50 µM in each case. Further, the figures for the EC90 in data set [3], in data set [4] and in data set [10] were 1.8 µM, 8 µM and 8 µM, respectively.

Turning to `CCC(CC)COC(=O)[C@H](C)N[P@](=O)(OC[C@H]1O[C@@](C#N)(c2ccc3c(N)ncnn23)[C@H](O)[C@@H]1O)Oc1ccccc1` [Remdesivir, remdesivir, reference compound], the “LOG viral RNA reduction” value in data set [11] (compound concentration 5 μM) is recorded as 6.67 LOG.
